This is an account of results in patent US8318447B2, “Use of bitter taste receptor to screen for compounds that offset the bitter taste of chlorogenic lactone containing coffee compositions” (Senomyx Inc., priority 2005, dated 2012).

Each structure is given as a SMILES string.

What all share (type): cell-based
The target of one assay is T1, hT2R54 (Homo sapiens, UniProt P59534).
T1 construct: expressed in transfected cells; host or cells: human embryonic kidney (HEK293) cells, transient transfection
T1 sequence (P59534 18-338): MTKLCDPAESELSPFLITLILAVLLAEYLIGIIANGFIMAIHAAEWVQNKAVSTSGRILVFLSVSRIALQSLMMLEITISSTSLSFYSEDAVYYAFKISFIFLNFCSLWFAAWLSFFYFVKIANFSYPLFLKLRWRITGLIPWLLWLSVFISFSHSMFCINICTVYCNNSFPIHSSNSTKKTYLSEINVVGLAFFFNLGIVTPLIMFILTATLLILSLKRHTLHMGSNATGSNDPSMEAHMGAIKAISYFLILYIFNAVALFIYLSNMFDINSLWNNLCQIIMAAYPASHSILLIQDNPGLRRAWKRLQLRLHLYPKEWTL
Nature of the assay: calcium imaging of HEK293 cells transfected with hT2R54 and chimeric G protein G16gust44. The settings on record: for response of HEK-293 cells that express hT2R54: 2 mM concentrations, FIG. 3; for response of hT2R54 (increase in intracellular calcium concentration): different concentrations, FIG. 2 / FIG. 4. Here is the method: (§1) More particularly, the present inventors transfected HEK293 cells with a particular hT2R together with a chimeric G protein (G 16gust44) which comprises the Gα16 G protein sequence modified by the replacement of carboxy-44 amino acid residues with those of gustducin, and recorded responses of these cells to specific bitter ligands by calcium imaging methods.
(§2) Activation of these receptors by 3CoQAL is measured in a cell-based assay detecting changes in intracellular calcium concentration. In brief, human embryonic kidney cells are seeded in 48-well tissue culture plates. 24 hours later, the cells are transiently transfected with plasmid containing either the hT2R8, hT2R14 or hT2R54 nucleic acid sequence, and plasmid containing a chimeric G protein (G16gust44). Another 24 hours later, the cells are incubated with a fluorescent dye specific for calcium (Fluo-4 or Fura-2; Molecular Probes) that provides a fast, simple and reliable fluorescence-based method for detecting changes in calcium concentration inside the cell. Activation of the T2Rs elicits a signaling cascade leading to the activation of PLC and a subsequent increase in intracellular calcium concentration. This increase in calcium concentration changes the fluorescence properties of the calcium dye inside the cells. These changes are monitored using fluorescence microscopy and a specific design software (Imaging Workbench, Axon).
as §2, with “this receptor” for “these receptors”, “3CQAL and 4CQAL” for “3CoQAL”
as §2, with “this receptor” for “these receptors”, “4FQAL” for “3CoQAL”, “brief” for “brief,”
Background: A change in cytosolic calcium serves as a functional read-out for many receptors and channels.

In the next assay the target is T2, hT2R8 (Homo sapiens, UniProt Q9NYW2).
T2 construct: expressed in transfected cells; host or cells: human embryonic kidney (HEK293) cells, transient transfection
T2 sequence (Q9NYW2 1-309): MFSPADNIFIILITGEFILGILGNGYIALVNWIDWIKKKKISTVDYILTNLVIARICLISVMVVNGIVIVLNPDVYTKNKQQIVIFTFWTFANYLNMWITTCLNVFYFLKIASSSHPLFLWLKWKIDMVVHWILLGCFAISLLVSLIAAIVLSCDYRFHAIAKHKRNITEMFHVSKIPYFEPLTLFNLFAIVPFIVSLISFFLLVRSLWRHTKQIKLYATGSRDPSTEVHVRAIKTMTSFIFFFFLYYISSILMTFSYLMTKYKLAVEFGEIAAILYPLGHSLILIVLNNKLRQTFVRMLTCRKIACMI
Nature of the assay: calcium imaging of HEK293 cells transfected with hT2R8 and chimeric G protein G16gust44. The settings on record: for response of HEK-293 cells that express hT2R8: 2 mM concentrations, FIG. 3; for response of hT2R8 (increase in intracellular calcium concentration): different concentrations, FIG. 2 / FIG. 4. Here is the method:
as §1, §2
as §2, with “this receptor” for “these receptors”, “3CQAL and 4CQAL” for “3CoQAL”
as §2, with “this receptor” for “these receptors”, “4FQAL” for “3CoQAL”, “brief” for “brief,”

The target in a further assay is T3, hT2R14 (Homo sapiens, UniProt Q9NYV8).
T3 construct: expressed in transfected cells; host or cells: human embryonic kidney (HEK293) cells, transient transfection
T3 sequence (Q9NYV8 1-317): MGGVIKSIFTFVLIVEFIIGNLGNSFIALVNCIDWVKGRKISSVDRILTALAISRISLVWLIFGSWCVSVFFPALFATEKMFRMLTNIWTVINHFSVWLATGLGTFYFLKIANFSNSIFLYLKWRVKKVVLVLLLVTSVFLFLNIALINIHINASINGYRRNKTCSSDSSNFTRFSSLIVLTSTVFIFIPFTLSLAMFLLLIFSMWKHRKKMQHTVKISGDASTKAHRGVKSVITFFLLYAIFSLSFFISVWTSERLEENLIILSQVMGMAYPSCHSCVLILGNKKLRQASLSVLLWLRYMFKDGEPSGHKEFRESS
The experiment in a line: calcium imaging of HEK293 cells transfected with hT2R14 and chimeric G protein G16gust44. The settings on record: for response of HEK-293 cells that express hT2R14: 2 mM concentrations, FIG. 3; for response of hT2R14 (increase in intracellular calcium concentration): different concentrations, FIG. 2. Here is the method:
as §1, §2
as §2, with “this receptor” for “these receptors”, “3CQAL and 4CQAL” for “3CoQAL”
as §2, with “this receptor” for “these receptors”, “4FQAL” for “3CoQAL”, “brief” for “brief,”

Take `O=C(/C=C/c1ccc(O)c(O)c1)O[C@@H]1C[C@]2(O)C[C@@H](OC2=O)[C@@H]1O` [3CQAL]: the “response of HEK-293 cells that express hT2R54” value at hT2R54 was “specifically respond”. Further, at hT2R8, the “response of HEK-293 cells that express hT2R8” value is reported as “specifically respond”. Also, the “response of HEK-293 cells that express hT2R14” value at hT2R14 is given as “specifically respond”.

Turning to `O=C(C=Cc1ccc(O)cc1)OC1CC2(O)CC(OC2=O)C1O` (stereo not drawn) [3CoQAL], the “response of hT2R54 (increase in intracellular calcium concentration)” value at hT2R54 was “responded”. The “response of hT2R8 (increase in intracellular calcium concentration)” value on hT2R8 is recorded as “responded”. Moreover, the “response of hT2R14 (increase in intracellular calcium concentration)” value on hT2R14 is given as “responded”.

As for `O=C(C=Cc1ccc(O)c(O)c1)OC1C(O)CC2(O)CC1OC2=O` (stereo not drawn) [4CQAL], the “response of HEK-293 cells that express hT2R54” value at hT2R54 is “specifically respond”. Moreover, on hT2R8, the “response of HEK-293 cells that express hT2R8” value is on record as “specifically respond”. In addition, at hT2R14, the “response of HEK-293 cells that express hT2R14” value is on record as “specifically respond”.

Turning to `COc1cc(/C=C/C(=O)O[C@@H]2[C@H](O)C[C@]3(O)C[C@H]2OC3=O)ccc1O` [4FQAL], the “response of hT2R54 (increase in intracellular calcium concentration)” value on hT2R54 is recorded as “responded specifically”. In addition, the “response of hT2R8 (increase in intracellular calcium concentration)” value on hT2R8 is “responded specifically”. For the same molecule, the “response of hT2R14 (increase in intracellular calcium concentration)” value on hT2R14 is on record as “specifically activate”.

For the molecule `OC[C@H]1O[C@@](CO)(O[C@H]2O[C@H](CO)[C@@H](O)[C@H](O)[C@H]2O)[C@@H](O)[C@@H]1O` [sucrose], on hT2R54, the “response of HEK-293 cells that express hT2R54” value is reported as “do not respond” and the “response of hT2R54 (increase in intracellular calcium concentration)” value is “do not respond”. Moreover, on hT2R8, the “response of HEK-293 cells that express hT2R8” value was “do not respond” and the “response of hT2R8 (increase in intracellular calcium concentration)” value is “do not respond”. Also, at hT2R14, the “response of HEK-293 cells that express hT2R14” value is listed as “do not respond” and the “response of hT2R14 (increase in intracellular calcium concentration)” value is “do not respond”.
